Measured values: article PMC11279465, “Dual Inhibitors of P-gp and Carbonic Anhydrase XII (hCA XII) against Tumor Multidrug Resistance with Piperazine Scaffold” (Molecules, 2024)

What was measured:
A549/DOX cells [1] = experiment: Membrane fluidity; assay type: cell-based, human; settings: 1 µM
Description: (§1) Membrane fluidity was measured fluorometrically using the Membrane Fluidity Kit, Abcam, according to the manufacturer’s instructions.

HT29/DOX cells [2] = experiment: Membrane fluidity; assay type: cell-based, human; settings: 1 µM
Description: as §1

P-gp [3] = target: T1, P-gp (Homo sapiens, UniProt P08183); experiment: P-gp ATPase activity (A549/DOX cells); assay type: biochemical; parameters: endogenous in cells; host or cells: HT29/DOX (A27) and A549/DOX (A28); settings: 1 µM, compared with A549
Description: (§2) Plasma-membrane vesicles enriched with P-gp were prepared by sequential centrifugation as detailed previously. The ATPase activity of immunopurified P-gp was evaluated spectrophotometrically by measuring the absorbance of the phosphate hydrolyzed from ATP at 620 nm, using a Synergy HT Multi-Detection Microplate Reader (Bio-Tek Instruments). The absorbance was converted into μmol hydrolyzed phosphate/min/mg proteins, according to the titration curve previously prepared.

A549/DOX cells [4] = experiment: TBARS (lipid peroxidation, 4-HNE kit); assay type: cell-based, human; settings: 1 µM
Description: (§3) Selected compounds have been tested for their cytotoxic activity at 24 h on HT29/DOX and A549/DOX cells and on the parental HT29 and A549 cells by MTT assay. To evaluate the mechanisms involved in CS, reactive oxygen species (ROS) were measured using the fluorescent probe 5-(and-6)-chloromethyl-2′,7′-dichlorodihydro-fluorescein diacetate-acetoxymethyl ester (DCFDA-AM), as previously reported. The results were expressed as nmol/mg cellular proteins. The amount of TBARS, as an index of lipoperoxidation, was measured with the Lipid Peroxidation (4-HNE) Assay Kit (Abcam, Cambridge, UK) that evaluates the 4-hydroxy-nonenale, one of the TBARS Results were expressed as nmoles/mg mitochondrial protein.

HT29/DOX cells [5] = experiment: TBARS (lipid peroxidation, 4-HNE kit); assay type: cell-based, human; settings: 1 µM
Description: as §3

A549/DOX cells [6] = experiment: Intrinsic cytotoxicity (MTT); assay type: cell-based, human; settings: 48 h; for toxicity: compound alone at 1 µM, A549/DOX; for more cytotoxic in resistant cells than in parental sensitive cells: compound alone, 1 µM, A549/DOX vs A549
How it was run: (§4)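 Resistant HT29/DOX and A549/DOX cells exposed for 48 h to compounds from 10 nM to 50 µM; viability measured by MTT. Growth expressed as percentage of untreated control.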

HT29/DOX cells [7] = experiment: Intrinsic cytotoxicity (MTT); assay type: cell-based, human; settings: 48 h; for toxicity: compound alone at 1 µM, HT29/DOX; for more cytotoxic in resistant cells than in parental sensitive cells: compound alone, 1 µM, HT29/DOX vs HT29
How it was run: as §4

K562/DOX cells = experiment: Doxorubicin cytotoxicity enhancement assay (MTT); assay type: cell-based, human; settings: 72 h
How it was run: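 K562/DOX cells exposed 72 h to varying doxorubicin concentrations plus 1 or 3 µM test compound. Viability by MTT absorbance, expressed as percentage of untreated control cells.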

hCA IX = target: T2, hCA IX (Homo sapiens, UniProt Q16790); experiment: CA inhibition, stopped-flow CO2 hydrase assay; assay type: biochemical; settings: stopped-flow technique; incubation time 6 h; mean of 3 assays
T2 construct: made in house
How it was run: (§5)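 Stopped-flow CO2 hydration used saturated CO2 solutions at 25 °C as substrate. Enzyme and inhibitor (10 μM stocks in DMSO-water, diluted down to 0.01 nM) were preincubated for 6 h at room temperature.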

hCA II = target: T3, hCA II (Homo sapiens, UniProt P00918); experiment: CA inhibition, stopped-flow CO2 hydrase assay; assay type: biochemical; settings: stopped-flow technique; incubation time 6 h; mean of 3 assays
T3 construct: made in house
How it was run: as §5

hCA I = target: T4, hCA I (Homo sapiens, UniProt P00915); experiment: CA inhibition, stopped-flow CO2 hydrase assay; assay type: biochemical; settings: stopped-flow technique; incubation time 6 h; mean of 3 assays
T4 construct: made in house
How it was run: as §5

hCA XII = target: T5, hCA XII (Homo sapiens, UniProt O43570); experiment: CA inhibition, stopped-flow CO2 hydrase assay; assay type: biochemical; settings: stopped-flow technique; incubation time 6 h; mean of 3 assays
T5 construct: made in house
How it was run: as §5

A549 cells = experiment: Intrinsic cytotoxicity (MTT); assay type: cell-based, human; settings: compound alone at 1 µM; parental A549; 48 h
Description: (§6) All compounds were preliminarily studied to evaluate their intrinsic cytotoxicity at different concentrations (from 10 nM to 50 µM) in the parental HT29 and A549 and the resistant HT29/DOX and A549/DOX cells using the MTT assay.
(§7) The intrinsic toxicity of the studied compounds was determined by an MTT assay. K562 and K562/DOX were exposed for 72 h with compounds at 1 and 3 µM concentrations while HT29, A549, HT29/DOX and A549/DOX cells were incubated for 48 h with compounds used at different concentrations (from 10 nM to 50 µM). The percentage of growth compared to the untreated control was transformed into histograms with the GraphPad Prism 5 program.

HT29 cells = experiment: Intrinsic cytotoxicity (MTT); assay type: cell-based, human; settings: compound alone at 1 µM; parental HT29; 48 h
Description: as §6, §7

P-gp [8] = target: T1, P-gp; experiment: P-gp ATPase activity (HT29/DOX cells); assay type: biochemical; parameters: endogenous in cells; host or cells: HT29/DOX (A27) and A549/DOX (A28); settings: 1 µM, compared with HT29
Description: as §2

A549/DOX cells [9] = experiment: ROS measurement (DCFDA-AM); assay type: cell-based, human; settings: 1 µM
Description: as §3

HT29/DOX cells [10] = experiment: ROS measurement (DCFDA-AM); assay type: cell-based, human; settings: 1 µM
Description: as §3

T1 sequence (P08183 whole entry): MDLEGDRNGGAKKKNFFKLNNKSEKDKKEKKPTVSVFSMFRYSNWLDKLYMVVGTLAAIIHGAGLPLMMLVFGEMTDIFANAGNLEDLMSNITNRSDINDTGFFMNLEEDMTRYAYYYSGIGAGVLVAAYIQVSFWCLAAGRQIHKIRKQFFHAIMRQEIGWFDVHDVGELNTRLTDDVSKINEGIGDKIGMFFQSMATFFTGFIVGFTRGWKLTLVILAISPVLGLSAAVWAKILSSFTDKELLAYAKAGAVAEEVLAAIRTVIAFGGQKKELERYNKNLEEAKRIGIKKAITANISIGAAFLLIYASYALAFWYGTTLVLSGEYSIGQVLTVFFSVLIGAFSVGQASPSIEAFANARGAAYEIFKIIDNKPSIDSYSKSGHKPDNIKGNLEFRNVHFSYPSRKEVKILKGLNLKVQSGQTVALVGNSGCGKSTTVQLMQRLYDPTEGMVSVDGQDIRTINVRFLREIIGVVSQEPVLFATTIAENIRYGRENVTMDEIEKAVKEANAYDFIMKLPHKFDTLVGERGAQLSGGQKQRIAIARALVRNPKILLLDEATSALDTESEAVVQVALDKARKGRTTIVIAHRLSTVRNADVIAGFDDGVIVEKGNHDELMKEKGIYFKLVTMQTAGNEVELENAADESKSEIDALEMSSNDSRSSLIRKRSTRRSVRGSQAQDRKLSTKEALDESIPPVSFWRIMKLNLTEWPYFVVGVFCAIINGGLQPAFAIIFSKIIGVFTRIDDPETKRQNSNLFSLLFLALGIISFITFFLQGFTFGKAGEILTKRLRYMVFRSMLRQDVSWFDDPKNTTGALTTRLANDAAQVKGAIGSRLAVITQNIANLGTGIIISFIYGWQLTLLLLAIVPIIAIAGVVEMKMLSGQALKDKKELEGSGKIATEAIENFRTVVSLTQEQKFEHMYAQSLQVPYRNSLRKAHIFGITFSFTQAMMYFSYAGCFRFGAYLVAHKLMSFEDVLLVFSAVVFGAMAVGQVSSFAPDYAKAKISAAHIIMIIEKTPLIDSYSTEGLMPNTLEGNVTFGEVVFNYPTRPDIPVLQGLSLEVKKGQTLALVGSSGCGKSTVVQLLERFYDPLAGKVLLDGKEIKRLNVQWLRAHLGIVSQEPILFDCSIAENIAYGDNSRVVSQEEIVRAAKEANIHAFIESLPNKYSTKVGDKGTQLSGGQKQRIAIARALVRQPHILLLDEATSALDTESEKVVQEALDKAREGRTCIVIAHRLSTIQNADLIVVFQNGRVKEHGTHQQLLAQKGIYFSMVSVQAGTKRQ
T5 sequence (O43570 25-354): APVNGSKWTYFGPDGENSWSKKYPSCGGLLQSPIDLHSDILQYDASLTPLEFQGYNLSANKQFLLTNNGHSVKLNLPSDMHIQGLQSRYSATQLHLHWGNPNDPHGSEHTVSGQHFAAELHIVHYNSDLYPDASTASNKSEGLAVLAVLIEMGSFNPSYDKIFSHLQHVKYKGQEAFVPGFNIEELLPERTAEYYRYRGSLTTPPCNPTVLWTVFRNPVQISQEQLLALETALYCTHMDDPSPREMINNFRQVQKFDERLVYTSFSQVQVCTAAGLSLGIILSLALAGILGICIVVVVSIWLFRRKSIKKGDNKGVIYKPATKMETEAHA
T4 sequence (P00915 whole entry): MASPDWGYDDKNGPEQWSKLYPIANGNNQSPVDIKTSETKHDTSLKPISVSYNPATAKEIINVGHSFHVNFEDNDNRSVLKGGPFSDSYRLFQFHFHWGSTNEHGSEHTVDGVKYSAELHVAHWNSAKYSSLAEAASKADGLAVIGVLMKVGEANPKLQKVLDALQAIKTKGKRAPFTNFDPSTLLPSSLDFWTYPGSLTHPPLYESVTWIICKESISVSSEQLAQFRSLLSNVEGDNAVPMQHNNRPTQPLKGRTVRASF

SMILES	membrane fluidity (A549/DOX cells [1])	membrane fluidity (HT29/DOX cells [2])	P-gp catalytic activity (P-gp [3])	increase of TBARS levels compared to the control (A549/DOX cells [4]) [times]	increase of TBARS levels compared to the control (HT29/DOX cells [5]) [times]	toxicity (A549/DOX cells [6]) [%]	more cytotoxic in resistant cells than in parental sensitive cells (A549/DOX cells [6])	toxicity (HT29/DOX cells [7]) [%]	more cytotoxic in resistant cells than in parental sensitive cells (HT29/DOX cells [7])	RF (Reversal Fold: IC50 of doxorubicin alone / in presence of modulator) (K562/DOX cells; compound at 1 µM)	RF (Reversal Fold: IC50 of doxorubicin alone / in presence of modulator) (K562/DOX cells; compound at 3 µM)	Ki (hCA IX) [nM]	Ki (hCA II) [µM]	Ki (hCA I) [µM]	Ki (hCA XII) [nM]	toxicity (A549 cells) [%]	toxicity (HT29 cells) [%]	P-gp catalytic activity (P-gp [8])	increase of ROS levels compared to the control (A549/DOX cells [9])	increase of ROS levels compared to the control (HT29/DOX cells [10])
COc1ccc(C(CCCN2CCN(CCCOc3ccc4oc(=O)ccc4c3)CC2)c2ccc(OC)cc2)cc1 [Compound 32, 6-(3-(4-(4,4-Bis(4-methoxyphenyl)butyl)piperazin-1-yl)propoxy)-2H-chromen-2-one]	increased membrane fluidity	increased membrane fluidity	lowered the catalytic efficacy of P-gp in resistant cells to levels comparable to drug-sensitive HT29 and A549 cells	4	2.6	≥ 35	15%-20%	≥ 35	15%-20%	3.6	7.9	89.6	> 10	> 10	71.5	≥ 35	≥ 35	lowered the catalytic efficacy of P-gp in resistant cells to levels comparable to drug-sensitive HT29 and A549 cells	7–8 times	3–4 times
COc1ccc(C(CCCN2CCN(CCCCOc3ccc4ccc(=O)oc4c3)CC2)c2ccc(OC)cc2)cc1 [Compound 27, 7-(4-(4-(4,4-Bis(4-methoxyphenyl)butyl)piperazin-1-yl)butoxy)-2H-chromen-2-one]	increased membrane fluidity	increased membrane fluidity	lowered the catalytic efficacy of P-gp in resistant cells to levels comparable to drug-sensitive HT29 and A549 cells	4	2.6	≥ 35	15%-20%	≥ 35	15%-20%	8.1	–	145	> 10	> 10	92.1	≥ 35	≥ 35	lowered the catalytic efficacy of P-gp in resistant cells to levels comparable to drug-sensitive HT29 and A549 cells	7–8 times	3–4 times
